According to patent US20130295578A1, “METHODS FOR SCREENING FOR DRUG RESISTANCE IN CANCER TREATMENT” (TRUSTEES OF DARTMOUTH COLLEGE, priority 2011, published 2013):

Assays:
[1] = tested on: BT474 breast cancer cells; conditions: 3D culture, trastuzumab resistance; cited from earlier work
[2] = tested on: PK-1 and PK-2 cells; assay: modified extracellular matrix-based 3D culture; assay type: cell-based, murine; conditions: kinase inhibitor present
Method: (§1) Murine pancreatic tissue from euthanized animals was mechanically minced and digested with 2 mg/ml of Collagenase Type 4 (Worthington, Lakewood, N.J.) for 1 hour at 37° C. For ex vivo primary cell culture, 10,000 cells per well of 48-well plate were immediately plated in 3% Matrigel™ as described above, except for this modification: RPMI 1640 medium was supplemented with 20% FBS, 1× penicillin/streptomycin and 25 ng/mL amphotericin B (MP Biomedicals, LLC, Solon, Ohio). For secondary cell cultures from tumor lesions of mouse models, cancer (epithelial) cells were selected by carrying out several rounds of diluted plating in RPMI 1640 medium, with a gradual decrease concentration of FBS from 20% to 5%: PK-1 and RInk-1, as previously reported (Seeley et al. 2009. Cancer Res. 69:422-430), or after subcutaneous passage in nude mice (PK-2 and RInk-2). Experiments were conducted with epithelial cells within less than 20 passages.

[3] = tested on: COLO-357 cells; conditions: for EGF/TGF-β1-induced growth stimulation: 1 nM EGF + 100 pM TGF-β1, inhibitor pre-incubated or added concomitantly
Method: An equal volume of cell suspension and ice-chilled 6% Matrigel™ (BD biosciences, San Jose, Calif.) in complete medium (RPMI 1640 supplemented with 5% FBS and 1× penicillin/streptomycin) were mixed and dispensed at: 5-15×10^3 cells in 1000 μl per well of 12-well plates or 3-10×10^3 cells in 200 μl per well of 48-well plates on top of a solidified 1% noble agar layer (Difco, Sparks, Md.). Ice-chilled 3% Matrigel™ in complete medium was used to replenish medium every 4 days and/or to administer compounds.
After 4 hours of staining with 2.5 mg/ml of 3-(4,5-Dimethylthiazol-2-yl)-2,5-diphenyltetrazolium bromide (MTT; Sigma) in PBS, plates were scanned and images were stored as high resolution (1200 dpi) grayscale TIFF files. Signal intensity and density was quantified using Image-Pro Plus (Media Cybernetics, Bethesda, Md.).

[4] = tested on: PK-2 cells; assay: modified extracellular matrix-based 3D culture, MTT readout; assay type: cell-based, murine; conditions: for EGF/TGF-β1-induced growth stimulation: 1 nM EGF + 100 pM TGF-β1, inhibitor pre-incubated or added concomitantly; for chemoresistance to treatment: PK-2 compared with COLO-357, at the tested concentrations
Method: as §1

[5] = tested on: PK; p16/p19Δ/Δ cells; assay: ex vivo primary cell 3D culture of PDAC mouse model tumor cells; assay type: cell-based; conditions: p16/p19Δ/Δ tumor-derived cells
Method: (§2) To assess tissue response to different chemotherapeutic treatments, tumor tissues were digested with collagenase to obtain single cell suspensions for accurate cell counting and equal cell seeding in replica experimental wells.
as §1

[6] = tested on: PK; p53Δ/Δ cells; assay: as above; assay type: cell-based; conditions: p53Δ/Δ tumor-derived cells
Method: as §2, §1

[7] = tested on: PDAC patients; conditions: cited from earlier work
[8] = tested on: ASPC-1, BxPC3 and T3M4 cells; assay: modified extracellular matrix-based 3D culture, growth factor stimulation; assay type: cell-based, human
Method: (§3) To determine how pancreatic cancer cells would integrate potential interactions between EGF and TGF-β1 signals, cells were treated four days after seeding in 3% Matrigel™ with TGF-β1 at a final concentration of 100 pM and/or EGF at 1 nM. […] The growth of ASPC-1, BxPC3 and T3M4 was not affected by TGFB-β1 treatment.

[9] = tested on: PK-1, PK-2 and RInk-2 cells; assay: as above; assay type: cell-based, murine
Method: as §3, §1

[10] = tested on: COLO-357 cells; assay: anchorage-independent growth in soft agar culture; assay type: cell-based, human; conditions: COLO-357, soft agar
[11] = tested on: COLO-357 cells; assay: culture on tissue culture-treated plastic plates, morphology and immunostaining; assay type: cell-based, human
Description: (§4) To further investigate the effects of extracellular matrix components on integration of growth factor signals in both human and murine pancreatic cancer cells, cellular responses were compared on conventional tissue culture-treated plastic plates and in 3% Matrigel™. […] Thus, cells loosened their tightly packed cobble-stone like arrangement, became more motile and acquired an elongated fibroblast-like shape. […] This effect was not observed in T3M4 cells, whereas the distribution of the cytoskeleton protein tubulin (control marker) was uniform across all epithelial structures. Increased vimentin expression was not observed in these cellular structures.
(§5) Cells cultured in 3% Matrigel™ were collected 4 days after treatment on a 40 μm sieve mesh using chilled PBS to loosen Matrigel™ matrix, fixed in 10% formalin for 1 hour and coated with melted 1% noble agar. Agar plugs were fixed for up to 4 hours in formalin and paraffin-embedded in fully-automated Shandon Pathcentre instrument as described previously (Sempere et al. 2010. Clin Cancer Res. 16:4246-4255). For freshly fixed cell assays, cells were seeded at 2-5×10^3 per well on 48-well plates, treated after 24 hours and collected 48 hours after treatments by rinsing with chilled PBS and fixed in 10% formalin for 30 minutes. Four μm sections of cellular structures in paraffin-embedded or freshly fixed cells were immunostained using antibody conditions and sequential tyramide signal amplification reactions as previously described (Sempere et al. 2010. Clin Cancer Res. 16:4246-4255).

[12] = tested on: PK-2 cells; assay: as above; assay type: cell-based, murine
Description: as §4, §5

## CC(C)(C)n1nc(-c2ccc(Cl)cc2)c2c(N)ncnc21 [PP2]
[1]
  activation of PI3K/AKT pathway and chemoresistant effects of TGF-β: prevented activation of PI3K/AKT pathway and disrupted chemoresistant effects of TGF-β

## C[S+]([O-])c1ccc(-c2nc(-c3ccncc3)c(-c3ccc(F)cc3)[nH]2)cc1 (centres unmarked) [SB203580]
[2]
  stimulatory growth effects of EGF/TGF-β1: mild effect
[3]; COLO-357, 3D culture
  EGF/TGF-β1-induced growth stimulation: mild inhibitory effect

## NC(=O)c1ccc(-c2nc(-c3ccc4c(c3)OCO4)c(-c3ccccn3)[nH]2)cc1 [SB431542]
[4]; PK-2, 3D culture
  EGF/TGF-β1-induced growth stimulation: significantly decreased
[4]; PK-2, inhibitor added 4 days following incubation with EGF/TGF-β1
  EGF/TGF-β1-induced growth stimulation, late inhibitor addition: halted further growth stimulation
[3]; COLO-357, 3D culture
  EGF/TGF-β1-induced growth stimulation: significantly decreased
[3]; COLO-357, inhibitor added 4 days following incubation with EGF/TGF-β1
  EGF/TGF-β1-induced growth stimulation, late inhibitor addition: halted further growth stimulation

## N#CC(=C(/N)Sc1ccccc1N)/C(C#N)=C(\N)Sc1ccccc1N [U0126]
[4]; PK-2, 3D culture, concomitant inhibitor treatment
  protective effects of EGF/TGF-β1 against gemcitabine and cisplatin: markedly effective only in PK-2 cells
[2]
  stimulatory growth effects of EGF/TGF-β1: moderate effect
[3]; COLO-357, 3D culture
  EGF/TGF-β1-induced growth stimulation: mild inhibitory effect

## N.N.[Cl][Pt][Cl] [cisplatin, cis-diamminedichloroplatinum]
[4]
  chemoresistance to treatment: more chemoresistant
[5]
  number and size of cellular structures in 3D culture: reduced the number and size of cellular structures
[6]
  number and size of cellular structures in 3D culture: reduced the number and size of cellular structures

## C#Cc1cccc(Nc2ncnc3cc(OCCOC)c(OCCOC)cc23)c1 [erlotinib]
[4]; PK-2, 3D culture
  EGF/TGF-β1-induced growth stimulation: significantly decreased
[3]; COLO-357, 3D culture
  EGF/TGF-β1-induced growth stimulation: significantly decreased
[7]; addition to gemcitabine as first-line PDAC treatment
  additional increase in survival: 12 days

## Nc1ccn([C@@H]2O[C@H](CO)[C@@H](O)C2(F)F)c(=O)n1 [gemcitabine]
[4]
  chemoresistance to treatment: more chemoresistant
[5]
  number and size of cellular structures in 3D culture: reduced the number and size of cellular structures
[6]
  number and size of cellular structures in 3D culture: reduced the number and size of cellular structures
[3]; human, 4 days, 10 nM
  cytotoxic effect: killed most COLO-357 cells
[7]; PDAC
  prolongation of life: about 8 weeks

## TGF-β1: transforming growth factor-β isoform 1, used at 100 pM
[4]; PK-2, 3D culture
  E-cadherin immunostaining: reduced membranous localization of E-cadherin
  lowest concentration at which morphological changes were observed: 1 pM
[8]; 100 pM TGF-β1
  growth: not affected
[8]; TGF-β1 added to EGF
  proliferative actions of EGF: did not affect
[9]; 100 pM TGF-β1
  morphology: profound morphological changes
[9]; growth factor treatment four days after seeding
  growth: dramatically enhanced the growth
[10]
  size and number of colonies: decreased the size and number of colonies
[10]; TGF-β1 added to EGF
  growth promoting effects of EGF: antagonized
[11]; COLO-357, on plastic, after TGF-β1 treatment
  E-cadherin and vimentin immunostaining: loss of membranous E-cadherin (epithelial marker) and upregulation of intermediate filament vimentin (mesenchymal marker)
[11]; COLO-357, plastic culture
  TGF-β1 concentration giving limited morphological changes: 20 pM
  TGF-β1 concentration giving overt morphological changes: 200 pM
[12]; PK-2, on plastic, after TGF-β1 treatment
  E-cadherin and vimentin immunostaining: loss of membranous E-cadherin (epithelial marker) and upregulation of intermediate filament vimentin (mesenchymal marker)
[12]; PK-2, plastic culture
  TGF-β1 concentration giving limited morphological changes: 20 pM
  TGF-β1 concentration giving overt morphological changes: 200 pM
[3]; COLO-357, 3D culture
  E-cadherin immunostaining: reduced membranous localization of E-cadherin
  lowest concentration at which morphological changes were observed: 1 pM
[3]; COLO-357, 3D culture, 100 pM TGF-β1
  morphology: profound morphological changes
[3]; COLO-357, 3D culture, TGF-β1 added to EGF
  growth stimulatory effects of EGF: greatly enhanced
[3]; COLO-357, 3D culture, growth factor treatment
  growth: mild growth stimulatory effects
[3]; COLO-357, growth factor-treated, after 4 and 8 days of incubation
  size of cellular structures under cisplatin or gemcitabine challenge: > 5 cells
